Assay [1] relates to Luciferase-encoding HCMV, AD169 strain. Kind of assay: CMV Luciferase assay (cellular herpesvirus replication). The format is cell-based. Conditions: Human betaherpesvirus 5, AD169, read-out: CMV-Luc Cellular EC50. In a few lines:
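Reporter HCMV AD169 with luciferase driven by late pp28 promoter, so signal requires viral DNA replication; NN-NHDF fibroblasts in 2% FBS medium, compound (0.0159–50 or 0.00318–10 μM, 0.5% DMSO) added 1 h before infection at MOI 1. Luminescence read 72 hpi; EC50 from 4-parameter fit of control-normalized %.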

For assay [2], the target named is human HSV DNA polymerase UL30 (Human herpesvirus 1 (strain 17) (HHV-1) (Human herpes simplex virus 1), UniProt P04293). Kind of assay: HSV polymerase biochemical assay (molecular beacon-based). In a few lines: (§1)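 Full-length wild-type N-terminal MBP-fusion polymerases from sf9 cells were used at 100 pM (CMV) or 625 pM (HSV) in Tris pH 7.5, 10 mM MgCl2, and preincubated with inhibitor for 30 min at RT. Reactions with 1.25 uM each dNTP, 200 nM primer and 100 nM molecular beacon ran 60 min (CMV) or 20 min (HSV) at RT. Fluorescence was read at 480/535 nm and IC50 derived.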

Assay [3] addresses human CMV DNA polymerase UL54 (Human cytomegalovirus (strain AD169) (HHV-5) (Human herpesvirus 5), UniProt P08546). Kind of assay: CMV polymerase biochemical assay (molecular beacon-based). In a few lines: as §1

Each structure is given as a SMILES string.

As to `CS(=O)(=O)N1CCC[C@@H]1CN1CCn2c(ccc(C(=O)NCc3ccc(Cl)cc3)c2=O)C1=O` [Example 63], the EC50 (in general, the midpoint of the concentration-response curve) in assay [1] was found to be 12300 nM. Moreover, the IC50 – broadly, the concentration that inhibits the measured activity by half – in assay [2] turned out to be 19800 nM; in assay [3], 420 nM.

For the compound `O=C(NCc1ccc(Cl)cc1)c1ccc2n(c1=O)CCN(CCN1CCCS1(=O)=O)C2=O` [Example 64, N-(4-chlorobenzyl)-2-(2-(1,1-dioxidoisothiazolidin-2-yl)ethyl)-1,6-dioxo-2,3,4,6-tetrahydro-1H-pyrido[1,2-a]pyrazine-7-carboxamide], the EC50 in assay [1] came out at 96.1 nM. For the same compound, the IC50 in assay [2] came to 181 nM; in assay [3] it was 33.6 nM.

Turning to `CS(=O)(=O)N1CC(CN2CCn3c(ccc(C(=O)NCc4ccc(Cl)cc4)c3=O)C2=O)C1` [Example 65], the concentration giving a half-maximal response (EC50) in assay [1] was 15100 nM. Further, the IC50 was found to be 11500 nM in assay [2] and 614 nM in assay [3].

For `Cc1cc(C(=O)NCc2ccc(Cl)cc2)c(=O)n2c1C(=O)N(CCN1CCCS1(=O)=O)CC2` [Example 66-1], the EC50 in assay [1] turned out to be 417 nM. Besides, the IC50 in assay [2] worked out at 125 nM; in assay [3], 37.5 nM.

Turning to `CS(=O)(=O)N1CCC1CN1CCn2c(ccc(C(=O)NCc3ccc(Cl)cc3)c2=O)C1=O` (stereo not drawn) [Example 66], the EC50 in assay [1] was found to be 1520 nM. Moreover, the figures for the IC50 in assay [2] and in assay [3] were 1180 nM and 112 nM, respectively.

With `C[S+]([O-])C1(CN2CCn3c(ccc(C(=O)NCc4ccc(Cl)cc4)c3=O)C2=O)CC1` (stereo not drawn) [Example 67-1, N-(4-chlorobenzyl)-2-((1-(methylsulfinyl)cyclopropyl)methyl)-1,6-dioxo-2,3,4,6-tetrahydro-1H-pyrido[1,2-a]pyrazine-7-carboxamide], the EC50 in assay [1] is 868 nM. For the same compound, the IC50 in assay [2] amounted to 1780 nM; in assay [3], 57.3 nM.

For `C[S+]([O-])C1(CN2CCn3c(ccc(C(=O)NCc4ccc(C#N)cc4)c3=O)C2=O)CC1` (stereo not drawn) [Example 68-1, N-(4-cyanobenzyl)-2-((1-(methylsulfinyl)cyclopropyl)methyl)-1,6-dioxo-2,3,4,6-tetrahydro-1H-pyrido[1,2-a]pyrazine-7-carboxamide], the concentration for a half-maximal effect (EC50) in assay [1] was 3170 nM. Besides, the values for the IC50 in assay [2] and in assay [3] were 3800 nM and 146 nM, respectively.

As to `C[S@@+]([O-])C1(CN2CCn3c(ccc(C(=O)NCc4ccc(C#N)cc4)c3=O)C2=O)CC1` [Example 68-2], the EC50 in assay [1] is 2860 nM. For the same compound, the IC50 worked out at 2730 nM in assay [2] and 62.2 nM in assay [3].

With `C[S@+]([O-])C1(CN2CCn3c(ccc(C(=O)NCc4ccc(C#N)cc4)c3=O)C2=O)CC1` [Example 68-3], in assay [1], the EC50 amounted to 7560 nM. In addition, the IC50 in assay [2] came out at 9190 nM; in assay [3] it was 198 nM.

`COCC1(CN2CCn3c(ccc(C(=O)NCc4ccc(Cl)cc4)c3=O)C2=O)CC1` [Example 69, N-(4-chlorobenzyl)-2-((1-(methoxymethyl)cyclopropyl)methyl)-1,6-dioxo-2,3,4,6-tetrahydro-1H-pyrido[1,2-a]pyrazine-7-carboxamide]: in assay [1], the concentration for a half-maximal effect (EC50) turned out to be 10000 nM. In addition, the IC50 stood at 5250 nM in assay [2] and 656 nM in assay [3].

Regarding `O=C(NCc1ccc(Cl)cc1)c1ccc2n(c1=O)CCN(CC1(N3CCCS3(=O)=O)CC1)C2=O` [Example 70, N-(4-chlorobenzyl)-2-((1-(1,1-dioxidoisothiazolidin-2-yl)cyclopropyl)methyl)-1,6-dioxo-2,3,4,6-tetrahydro-1H-pyrido[1,2-a]pyrazine-7-carboxamide], in assay [1], the half-maximal effective concentration (EC50) came out at 40.1 nM. Besides, the IC50 in assay [2] worked out at 28.1 nM; in assay [3], 1.4 nM.

`CN(C)S(=O)(=O)CCN1CCn2c(ccc(C(=O)NCc3ccc(Cl)cc3)c2=O)C1=O` [Example 71, N-(4-chlorobenzyl)-2-(2-(N,N-dimethylsulfamoyl)ethyl)-1,6-dioxo-2,3,4,6-tetrahydro-1H-pyrido[1,2-a]pyrazine-7-carboxamide]: the EC50 in assay [1] was 3050 nM. The results for the IC50 in assay [2] and in assay [3] were 2780 nM and 347 nM, respectively.

Consider `CC(C)(C)NS(=O)(=O)C1(CN2CCn3c(ccc(C(=O)NCc4ccc(Cl)cc4)c3=O)C2=O)CC1` [Example 72-1, 2-((1-(N-(tert-butyl)sulfamoyl)cyclopropyl)methyl)-N-(4-chlorobenzyl)-1,6-dioxo-2,3,4,6-tetrahydro-1H-pyrido[1,2-a]pyrazine-7-carboxamide], for which the EC50 in assay [1] worked out at 29.2 nM. The IC50 in assay [2] turned out to be 23.5 nM; in assay [3], 0.6 nM.

Turning to `NS(=O)(=O)C1(CN2CCn3c(ccc(C(=O)NCc4ccc(Cl)cc4)c3=O)C2=O)CC1` [Example 72-2, N-(4-chlorobenzyl)-1,6-dioxo-2-((1-sulfamoylcyclopropyl)methyl)-2,3,4,6-tetrahydro-1H-pyrido[1,2-a]pyrazine-7-carboxamide], in assay [1], the 50% effective concentration (EC50) came to 50.2 nM. The results for the IC50 in assay [2] and in assay [3] were 26.4 nM and 1.2 nM, respectively.

`CC(=O)NS(=O)(=O)C1(CN2CCn3c(ccc(C(=O)NCc4ccc(Cl)cc4)c3=O)C2=O)CC1` [Example 72-3, 2-((1-(N-acetylsulfamoyl)cyclopropyl)methyl)-N-(4-chlorobenzyl)-1,6-dioxo-2,3,4,6-tetrahydro-1H-pyrido[1,2-a]pyrazine-7-carboxamide]: the EC50 in assay [1] was determined as 805 nM. Also, the IC50 came out at 31.1 nM in assay [2] and 0.8 nM in assay [3].

Regarding `CC(C)(C)NS(=O)(=O)C1(CN2CCn3c(ccc(C(=O)NCc4ccc(C#N)cc4)c3=O)C2=O)CC1` [Example 73-1], the EC50 in assay [1] is 93.7 nM. The IC50 in assay [2] came to 46.9 nM; in assay [3], 1.5 nM.

For the compound `CC(=O)NS(=O)(=O)C1(CN2CCn3c(ccc(C(=O)NCc4ccc(C#N)cc4)c3=O)C2=O)CC1` [Example 73-3], the EC50 in assay [1] was found to be 9310 nM. The IC50 in assay [2] worked out at 45.9 nM; in assay [3], 1.6 nM.

`CN(C(C)(C)C)S(=O)(=O)C1(CN2CCn3c(ccc(C(=O)NCc4ccc(Cl)cc4)c3=O)C2=O)CC1` [Example 74-1]: the EC50 in assay [1] is 13.7 nM. In addition, the IC50 in assay [2] stood at 22.7 nM; in assay [3] it was 0.4 nM.

On to `CNS(=O)(=O)C1(CN2CCn3c(ccc(C(=O)NCc4ccc(Cl)cc4)c3=O)C2=O)CC1` [Example 74-2], for which the EC50 in assay [1] stood at 14.5 nM. For the same compound, the values for the IC50 in assay [2] and in assay [3] were 52.1 nM and 1.6 nM, respectively.

Take `CN(C(C)(C)C)S(=O)(=O)C1(CN2CCn3c(ccc(C(=O)NCc4ccc(C#N)cc4)c3=O)C2=O)CC1` [Example 75-1]: in assay [1], the EC50 amounted to 35.6 nM. Further, the figures for the IC50 in assay [2] and in assay [3] were 45.9 nM and 1.1 nM, respectively.

Consider `CNS(=O)(=O)C1(CN2CCn3c(ccc(C(=O)NCc4ccc(C#N)cc4)c3=O)C2=O)CC1` [Example 75-2], for which the EC50 in assay [1] turned out to be 62.2 nM. Also, the IC50 in assay [2] amounted to 77.3 nM; in assay [3], 2.7 nM.

As to `O=C(NCc1ccc(Cl)cc1)c1ccc2n(c1=O)CCN(CC1(S(=O)(=O)C3(F)CC3)CC1)C2=O` [Example 76, N-(4-chlorobenzyl)-2-((1-((1-fluorocyclopropyl)sulfonyl)cyclopropyl)methyl)-1,6-dioxo-2,3,4,6-tetrahydro-1H-pyrido[1,2-a]pyrazine-7-carboxamide], the EC50 in assay [1] was 46.9 nM. Further, the half-inhibitory concentration (IC50) in assay [2] stood at 59.5 nM; in assay [3] it was 1.9 nM.
